Results published in patent US20240409935A1, “Atg8ylation coordinates stress granule formation and mTOR inactivation in response to lysosomal damage” (priority 2023, published 2024).
Residues, ends and D or L forms follow the SMILES beside them. *: point of attachment. βNA = c1ccc2cc(N*)ccc2c1

Experiments:
[1] = test system: G3BP1 puncta (stress granules) in U2OS cells; assay: HCM quantification of G3BP1 puncta (stress granule formation) in U2OS cells; format: cell-based, human; details: for SG formation response (G3BP1 puncta): agent alone for 30 min (2 mM LLOMe, 200 μM GPN, 400 μg/mL silica, 4 mM LOMe)
mTOR = assay: mTOR/mTORC1 activity by phosphorylation of its substrates (4EBP1 S65, ULK1 S757, S6K1 T389) in U2OS cells; format: cell-based, human
[2] = test system: eIF2α (S51) phosphorylation; assay: Immunoblot analysis of eIF2α (S51) phosphorylation in U2OS cells; format: cell-based, human
[3] = test system: NUFIP2, G3BP1 and TIA1 on lysosomes; format: cell-based, human
[4] = test system: Galectin-3 puncta in BMM cells; format: cell-based, murine
TFEB = TFEB nuclear translocation (HCM) and TFEB (S142) phosphorylation in Huh7 cells; format: cell-based, human; details: 530 nM AZD6244 for 2 h, 1 mM LLOMe for 30 min
Experimental: FIGS. 2SA-2SG show the cellular transcriptional response during lysosomal damage. FIG. 2SA RNAseq analysis of the change on gene expression in HEK293T cells in response to 1 mM LLOMe treatment for 30 min. […] The dotted line indicates the significance cut-off (P<0.05). […] Ctrl, control (untreated cells). […] Blue: nuclei, Hoechst 33342. Red: anti-TFEB antibody, Alexa Fluor 568. White masks, computer-algorithm-defined cell boundaries. Pink masks, computer-identified nuclear TFEB based on the average intensity of Alexa Fluor 568 fluorescence. […] Red masks, computer-identified G3BP1 puncta. […] Red masks, computer-identified G3BP1 puncta. Ctrl, control (untreated cells). Data, means±SEM; HCM: n≥3 (each experiment: 500 valid primary objects/cells per Well, ≥5 Well s/sample). **p<0.01, ANOVA.

[5] = test system: human peripheral blood monocyte-derived macrophages (hMDM); details: 1 μg/ml cycloheximide
[6] = test system: human peripheral blood monocyte-derived macrophages (hMDM); assay: PI uptake cell death assay (HCM) in hMDM; format: cell-based
Experimental: Cells Were treated with 2 mM LLOMe for 30 min, and then stained with propidium iodide (PI) (dead cells) and Hoechst-33342 (total cells). White masks, algorithm-defined cell boundaries (primary objects); red masks, computer-identified PI^+ nuclei (target objects). […] Cells Were treated with 2 mM LLOMe for 30 min. […] Cells Were treated with 2 mM in the presence or absence of 10 μg/ml cycloheximide (CHX) for 30 min, and then stained with PI (dead cells) and Hoechst-33342 (total cells). […] Scale bar, 10 μm. […] Cells Were treated with 2 mM LLOMe with or without CHX for 30 min, and then stained using Live/Dead™ stain kit (ThermoFisher). […] Cells Were treated with 2 mM LLOMe for 30 min, and then stained with PI (dead cells), Hoechst-33342 (total cells) or eIF4G. (i) HCM images: white masks, algorithm-defined cell boundaries; green masks, computer-identified eIF4G puncta; red masks, computer-identified PI^+ nuclei (target objects); (ii and iii) corresponding HCM quantification. […] Cells Were treated with 2 mM LLOMe for 30 min. […] CTR, control; NT, untreated cells. Data, means±SEM (n=3); HCM: n≥3 (each experiment: 500 valid primary objects/cells per Well, ≥5 Well s/sample). †p≥0.05 (not significant), *p<0.05, **p<0.01, ANOVA. See also FIG. 7S.
(§1) FIGS. 12SA-12SF. Stress granules are important for cell survival in response to lysosomal damage in disease states. […] White masks, algorithm-defined cell boundaries; red masks, computer-identified LTR puncta. […] White masks, algorithm-defined cell boundaries; green masks, computer-identified ALIX puncta. […] White masks, algorithm-defined cell boundaries; red masks, computer-identified G3BP1 puncta. […] Cells Were treated with 200 μg/mL silica for 4 h in the presence or absence of 100 nM ISRIB, and then stained with propidium iodide PI (dead cells) and Hoechst-33342 (total cells). White masks, algorithm-defined cell boundaries; red masks, computer-identified PI^+ nuclei. […]

U2OS cells = assay: LDH release assay in U2OS cells; format: cell-based, human; details: LLOMe plus cycloheximide
Text: How does SG formation affect cell fate during lysosomal damage? The inventors utilized SG deficient U2OS cells (human osteosarcoma epithelial cell line) genetically lacking both G3BP1 and G3BP2 (ΔΔG3BP1/2) (Nancy Kedersha et al., 2016), which are essential factors for SG formation (Guillén-Boixet et al., 2020; Nancy Kedersha et al., 2016; P. Yang et al., 2020) (FIG. 7SA). The inventors quantified the number of SGs using the canonical SG marker polyA RNA (Ivanov et al., 2019) via high-content microscopy (HCM) (FIG. S1B) and verified the depletion of SG formation in ΔΔG3BP1/2 cells when exposed to the lysosome-specific damaging agent L-leucyl-L-leucine methyl ester (LLOMe) (Jia et al., 2022; Tan et al., 2022; Thiele et al., 1990) (FIG. 7SB). A propidium iodide (PI) uptake assay measuring plasma membrane integrity (Crowley et al., 2016; Liu et al., 2023) was adapted to quantify cell survival during lysosomal damage using HCM. […] This was additionally confirmed by using a lactate dehydrogenase (LDH) release assay measuring non-specific leak from cells (Chan et al., 2013; Kumar et al., 2018) (FIG. 1B). […] Elevated cell death, as quantified by PI uptake assay (FIG. 1F (i, iii)) and the LDH release assay (FIG. 1G), was detected in G3BP1/2^DKD in response to LLOMe treatment. […]

[7] = test system: human peripheral blood monocyte-derived macrophages (hMDM); details: hemozoin (10.0 mg/mL) 4 h, 1 μg/ml cycloheximide
PKR = assay: LysoIP immunoblotting of PKR and eIF2α phosphorylation on damaged lysosomes from HEK293T cells; format: cell-based, human; details: 1 mM LLOMe with 210 nM imidazolo-oxindole C16 for 1 h
[8] = test system: ALIX puncta in U2OS cells; assay: HCM quantification of ALIX puncta in U2OS cells; format: cell-based, human; details: 15 μM BAPTA-AM for 1 h, then 2 mM LLOMe for 30 min
Experimental: Cells Were treated with 2 mM LLOMe for 30 min. White masks, algorithm-defined cell boundaries; red masks, computer-identified G3BP1 puncta. […] Cells Were treated with 2 mM LLOMe for 30 min. White masks, algorithm-defined cell boundaries; green masks, computer-identified ALIX puncta. NT, untreated cells. Data, means±SEM (n=3); HCM: n≥3 (each experiment: 500 valid primary objects/cells per Well, ≥5 Well s/sample). †p≥0.05 (not significant), **p<0.01, ANOVA. See also FIG. 11.

THP-1 cells = assay: Cell survival of THP-1 cells; format: cell-based
ATF4 = ATF4 expression in THP-1 cells; format: cell-based, human
[9] = test system: G3BP1 puncta in THP-1 cells; assay: Stress granule formation in THP-1 cells; format: cell-based, human
Experimental: as §1
How does SG formation affect cell fate during lysosomal damage? […] The inventors quantified the number of SGs using the canonical SG marker polyA RNA (Ivanov et al., 2019) via high-content microscopy (HCM) (FIG. S1B) and verified the depletion of SG formation in ΔΔG3BP1/2 cells when exposed to the lysosome-specific damaging agent L-leucyl-L-leucine methyl ester (LLOMe) (Jia et al., 2022; Tan et al., 2022; Thiele et al., 1990) (FIG. 7SB). A propidium iodide (PI) uptake assay measuring plasma membrane integrity (Crowley et al., 2016; Liu et al., 2023) was adapted to quantify cell survival during lysosomal damage using HCM. […]

NCC(=O)N[C@@H](Cc1ccccc1)C(=O)Nc1ccc2ccccc2c1 [GPN, glycyl-L-phenylalanine-2-naphthyl amide] (H-Gly-Phe-βNA)
SG formation response (G3BP1 puncta) [1]: strong SG formation response

O=[As][O-].[Na+] [arsenite, NaAsO2]
mTORC1 activity under arsenic stress (mTOR): activating mTORC1 activity
eIF2α phosphorylation under arsenic stress [2]: led to eIF2α phosphorylation
enrichment of NUFIP2, G3BP1 and TIA1 on purified lysosomes [3]: not on lysosomes purified from cells treated with arsenite
lysosomal damage monitored by Galectin-3 response [4]: did not induce lysosomal damage

Cn1cnc2c(F)c(Nc3ccc(Br)cc3Cl)c(C(=O)NOCCO)cc21 [AZD6244]
nuclear translocation of TFEB and dephosphorylation at Ser142: lysosomal damage compared with AZD6244 (TFEB): equal in magnitude

COC(=O)[C@@H](N)CC(C)C [LOMe]
SG formation response (G3BP1 puncta) [1]: did not induce SG formation

C[C@@H]1C[C@@H]([C@H](O)CC2CC(=O)NC(=O)C2)C(=O)[C@@H](C)C1 [cycloheximide]
cell death (AMNIS, Live/Dead) during tau oligomer treatment, with cycloheximide ([5]; 10 μg/mL tau oligomer for 4 h): augmented cell death
cell death (AMNIS, Live/Dead) during silica treatment, with cycloheximide ([5]; 200 μg/mL silica for 4 h): augmented cell death
cell death by PI uptake assay during LLOMe treatment, with cycloheximide ([6]; 2 mM LLOMe with 10 μg/ml cycloheximide for 30 min): significant increase in cell death
cell survival by LDH release, with cycloheximide during lysosomal damage (U2OS cells): increased LDH release
cell death by LDH release assay in response to hemozoin, with cycloheximide [7]: increased cell death
SG formation (G3BP1 puncta) following LLOMe treatment, with cycloheximide [1]: inhibited SG formation

O=C1Nc2ccc3ncsc3c2/C1=C/c1cnc[nH]1 [imidazolo-oxindole C16]
phosphorylation of both PKR and eIF2α on damaged lysosomes, with C16 (PKR): effectively blocked
SG formation during lysosomal damage, with C16 ([1]; 210 nM imidazolo-oxindole C16 for 2 h followed by 2 mM LLOMe for 30 min): reduced SG formation

Nc1ncc2[nH]cnc2n1 [2-AP, 2-aminopurine]
eIF2α phosphorylation in cells treated with LLOMe, with PKR inhibitor ([2]; U2OS cells, 2-AP for 1 h followed by 2 mM LLOMe for 30 min): inhibited eIF2α phosphorylation
SG formation in response to LLOMe treatment, with 2-AP ([1]; 2-AP for 1 h followed by 2 mM LLOMe for 30 min): inhibited, in a dose-response fashion, SG formation

CC(=O)OCOC(=O)CN(CC(=O)OCOC(C)=O)c1ccccc1OCCOc1ccccc1N(CC(=O)OCOC(C)=O)CC(=O)OCOC(C)=O [BAPTA-AM]
ALIX puncta formation upon lysosomal damage, with BAPTA-AM [8]: decrease in ALIX puncta formation
eIF2α phosphorylation during lysosomal damage, with BAPTA-AM ([2]; U2OS cells, 15 μM BAPTA-AM for 1 h, then 2 mM LLOMe for 30 min): significant reduction
SG formation during lysosomal damage, with BAPTA-AM ([1]; 15 μM BAPTA-AM for 1 h, then 2 mM LLOMe for 30 min): significant reduction in SG formation

O=C(COc1ccc(Cl)cc1)N[C@H]1CC[C@@H](NC(=O)COc2ccc(Cl)cc2)CC1 [ISRIB, N,N′-((1s,4s)-cyclohexane-1,4-diyl)bis(2-(4-chlorophenoxy)acetamide)]
cell survival upon lysosomal damage, with ISRIB (THP-1 cells): decrease in cell survival
cell death by PI uptake assay during tau oligomer treatment, with ISRIB ([6]; 10 μg/mL tau oligomer for 4 h, 100 nM ISRIB): comparable effect on cell death
cell death by PI uptake assay during silica treatment, with ISRIB ([6]; 200 μg/mL silica for 4 h, 100 nM ISRIB): comparable effect on cell death
ATF4 expression levels upon lysosomal damage, with ISRIB (ATF4): reduction in ATF4 expression levels
SG formation upon lysosomal damage, with ISRIB [9]: prevented SG formation
